Our source for the Ki and IC50 values is US8008299B2, “Urotensin II receptor antagonists” (Janssen Pharmaceutica, N.V., priority 2007, dated 2011).

In test [1] the target is T1, UT receptors in HSMM (Human Skeletal Muscle Myoblasts) (Homo sapiens, UniProt Q9UKP6).
T1 sequence (Q9UKP6 1-389): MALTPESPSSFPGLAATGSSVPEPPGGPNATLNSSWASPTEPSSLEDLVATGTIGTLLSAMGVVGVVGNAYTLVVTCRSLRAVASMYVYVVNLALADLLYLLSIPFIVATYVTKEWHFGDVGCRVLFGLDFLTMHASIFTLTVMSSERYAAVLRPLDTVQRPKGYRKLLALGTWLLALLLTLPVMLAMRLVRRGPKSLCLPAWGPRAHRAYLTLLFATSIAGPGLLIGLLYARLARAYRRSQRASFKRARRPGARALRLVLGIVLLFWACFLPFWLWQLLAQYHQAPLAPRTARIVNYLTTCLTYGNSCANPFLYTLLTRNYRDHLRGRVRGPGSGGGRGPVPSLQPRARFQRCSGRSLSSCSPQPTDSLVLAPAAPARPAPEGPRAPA
Put plainly: Human Radioligand Binding Assay ((^125I)-U-II binding to intact HSMM).

Test [2] concerns the target T2, Human UII (U-II receptor) in 6D9 human rhabdomyosarcoma cells (Homo sapiens, UniProt Q9UKP6).
T2 construct: 6D9: isolated by dilution subcloning of RMS13 cells, ATCC® Number: CRL-2061; host or cells: 6D9 human rhabdomyosarcoma cells (subclone of RMS13)
T2 sequence (Q9UKP6 1-389): T1 sequence (Q9UKP6 1-389)
Put plainly: Human UII Calcium Mobilization Assay. The note with it: 6D9 human rhabdomyosarcoma cells, FLIPR TETRA, average; read-out: Human UII Ca+ Mobilization Average IC50. The class given is cell-based. The method, then:
25 μL of dye solution was added to the wells such that the final liquid volume before agonist/antagonist treatment was 50 μL for all assays. The cell plates were incubated at 37° C. for 45 minutes and the fluorescence intensity was measured on a Fluorometric Imaging Plate Reader (FLIPR^TETRA, Molecular Devices, Sunnyvale, Calif.).
Antagonist and agonist U-II were added at room temperature on the FLIPR^TETRA, and the fluorescence intensity before and after addition was measured over a period of 4 minutes. The dye incubation time and temperature as well as instrument setting was adjusted so the fluorescence intensity could be compared between plates on the same day. EC50 and IC50 were analyzed using GraphPad Prism 4 software (GraphPad Software Inc., San Diego, Calif.).
For assays, U-II agonist, U-II antagonist and urantide were diluted with HBSS/HEPES containing 0.01% FBS.
Test compounds were dissolved in DMSO at 10 mM concentration. The serial dilutions were carried out in HBSS/HEPES. The highest final DMSO concentration was at 0.1%.
For orientation: Calcium flux is commonly read through the fluorescence of an indicator in the cells.

The target of test [3] is T3, rat GPR14 (U-II receptor) (Rattus norvegicus, UniProt P49684).
T3 construct: expressed in transfected cells
T3 sequence (P49684 1-386): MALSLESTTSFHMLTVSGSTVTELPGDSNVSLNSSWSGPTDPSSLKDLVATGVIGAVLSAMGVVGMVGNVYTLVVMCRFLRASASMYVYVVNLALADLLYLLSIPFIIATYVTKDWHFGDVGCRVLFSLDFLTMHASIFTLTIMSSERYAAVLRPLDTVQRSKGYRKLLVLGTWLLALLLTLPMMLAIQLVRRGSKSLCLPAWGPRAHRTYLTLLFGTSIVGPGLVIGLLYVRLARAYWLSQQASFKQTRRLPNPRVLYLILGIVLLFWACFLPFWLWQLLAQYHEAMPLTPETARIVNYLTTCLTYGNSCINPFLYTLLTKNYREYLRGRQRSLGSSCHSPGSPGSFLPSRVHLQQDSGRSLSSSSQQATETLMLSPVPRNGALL
Put plainly: Rat UII Calcium Mobilization FLIPR Assay. The class given is cell-based. The note with it: CHO cells transfected with rat GPR14; antagonist activity after 5 min incubation vs agonist (Ac)-CFWK(2-NaI)C-NH2 at 1 nM. An excerpt: To derive these cells, the complete coding sequence of rat U-II (Genbank Accession No. U32673) was amplified by nested PCR from rat heart marathon-Ready cDNA. […] The PCR products were cloned into pcDNA3 (Invitrogen) digested with EcoR I and Xba I. Clones containing rat U-II receptor were verified by complete sequencing of the U-II receptor insert to ensure a lack of PCR-introduced errors. The constructed vector was transfected into CHO cells by using lipofectamine (GIBCO BRL). CHO cells with high expression of rat U-II receptor were selected and established as stable cell lines by using G418. CHO cells were seeded at 25,000 cells per well into 96-well, black-wall, clear-bottom microtiter plates 24 h before assay. Cells in culture media (DMEM/F12 containing 15 mM HEPES, L-glutamine, pyridoxine hydrochloride; 10% fetal bovine serum; 1 mg/mL G418 sulfate; antibiotic-antimycotic; pH 7.4) were loaded with proprietary dye, from the FLIPR Calcium Assay Kit (Molecular Devices), prepared in assay buffer (Hanks Balanced Salts Solution, 20 mM HEPES, 0.1% BSA, 2.5 mM probenecid, pH 7.4), and incubated for 1 h at 37° C. Calcium mobilization determinations were performed at room temperature (23° C.).

Where [4] appears, read: read-out: Human UII Average Binding Ki, intact HSMM, 0.150 nM (^125I)-U-II, 3 h, 25° C.

Molecules are shown by their SMILES. Where two headings read alike, the source gives them in different places.

Consider `COc1ccc([C@@H](CCCNc2nccc(C(F)(F)F)n2)N2Cc3c(cccc3N3CCNCC3)C2=O)cc1OC` [Cpd 6, 2-[(1R)-1-(3,4-dimethoxy-phenyl)-4-(4-trifluoromethyl-pyrimidin-2-ylamino)-butyl]-4-piperazin-1-yl-2,3-dihydro-isoindol-1-one], for which the Ki (commonly the dissociation constant of the complex between target and ligand, obtained from inhibition or displacement) in test [1] was determined as 120 nM. In addition, the IC50 (as a rule, the concentration at which inhibition is half-maximal) amounted to 536 nM in test [2] and 8 nM in test [3].
On to `CCN1CCN(c2cccc3c2CN([C@H](CCCN(C)S(=O)(=O)c2cn(C)c(C)n2)c2ccc(OC)c(OC)c2)C3=O)CC1` [Cpd 39, 1,2-dimethyl-1H-imidazole-4-sulfonic acid {(4R)-4-(3,4-dimethoxy-phenyl)-4-[4-(4-ethyl-piperazin-1-yl)-1-oxo-1,3-dihydro-isoindol-2-yl]-butyl}-methyl-amide], for which the affinity in test [1], expressed as Ki, was 162 nM. The IC50 is 988 nM in test [2] and 138 nM in test [3].
As to `CCN1CCN(c2cccc3c2CN([C@H](CCCN(C)Cc2ccccc2F)c2ccc(OC)c(OC)c2)C3=O)CC1` [Cpd 97, 2-{(1R)-1-(3,4-dimethoxy-phenyl)-4-[(2-fluoro-benzyl)-methyl-amino]-butyl}-4-(4-ethyl-piperazin-1-yl)-2,3-dihydro-isoindol-1-one], affinity in test [1] was put at a Ki of 26 nM. Further, the IC50 in test [2] stood at 56 nM; in test [3], 4 nM.
For the molecule `COc1ccc([C@@H](CCCOCc2ccccc2)N2Cc3c(cccc3N3CCNCC3)C2=O)cc1OC` [Cpd 41, 2-[(1R)-4-benzyloxy-1-(3,4-dimethoxy-phenyl)-butyl]-4-piperazin-1-yl-2,3-dihydro-isoindol-1-one], the Ki in test [1] amounted to 165 nM. In addition, the IC50 turned out to be 450 nM in test [2] and 22 nM in test [3].
With `CCN1CCN(c2cccc3c2CN([C@H](CCCNCc2cccs2)c2ccc(OC)c(OC)c2)C3=O)CC1` [Cpd 72, 2-{(1R)-1-(3,4-dimethoxy-phenyl)-4-[(thiophen-2-ylmethyl)-amino]-butyl}-4-(4-ethyl-piperazin-1-yl)-2,3-dihydro-isoindol-1-one], the Ki in test [1] (setting [4]) worked out at 18 nM. Further, the figures for the IC50 in test [2] and in test [3] were 59 nM and 6 nM, respectively.
Take `CCN1CCN(c2cccc3c2CN([C@H](CCCN(Cc2ccccc2)Cc2ccccc2)c2ccc(OC)c(OC)c2)C3=O)CC1` [Cpd 73, 2-[(1R)-4-dibenzylamino-1-(3,4-dimethoxy-phenyl)-butyl]-4-(4-ethyl-piperazin-1-yl)-2,3-dihydro-isoindol-1-one]: in test [1], the affinity corresponds to a Ki of 53 nM. Besides, the IC50 in test [2] is 178 nM; in test [3], 26 nM.
As to `CCN1CCN(c2cccc3c2CN([C@H](CCCN(Cc2ccc(F)cc2)C2CC2)c2ccc(OC)c(OC)c2)C3=O)CC1` [Cpd 90, 2-[(1R)-4-[cyclopropyl-(4-fluoro-benzyl)-amino]-1-(3,4-dimethoxy-phenyl)-butyl]-4-(4-ethyl-piperazin-1-yl)-2,3-dihydro-isoindol-1-one], in test [1], the affinity corresponds to a Ki of 34 nM. Moreover, the IC50 in test [2] is 168 nM; in test [3], 6 nM.
In turn, `CCN1CCN(c2cccc3c2CN(C(c2cccc(NS(=O)(=O)c4cccs4)c2)c2ccc(OC)c(OC)c2)C3=O)CC1` (stereo not drawn) [Cpd 16, thiophene-2-sulfonic acid (3-{(3,4-dimethoxy-phenyl)-[4-(4-ethyl-piperazin-1-yl)-1-oxo-1,3-dihydro-isoindol-2-yl]-methyl}-phenyl)-amide] returned an inhibition constant (Ki) in test [1] of 66 nM. Moreover, the figures for the half-maximal inhibitory concentration (IC50) in test [2] and in test [3] were 1270 nM and 31 nM, respectively.
With `CCN1CCN(c2cccc3c2CN([C@H](CCCNS(N)(=O)=O)c2ccc(OC)c(OC)c2)C3=O)CC1` [Cpd 58, aminosulfonic acid {(4R)-4-(3,4-dimethoxy-phenyl)-4-[4-(4-ethyl-piperazin-1-yl)-1-oxo-1,3-dihydro-isoindol-2-yl]-butyl}-amide], the affinity in test [1] corresponds to a Ki of 109 nM. The figures for the IC50 in test [2] and in test [3] were 449 nM and 81 nM, respectively.
In turn, `CCN1CCN(c2cccc3c2CN([C@H](CCCNC(=O)c2nccn2C)c2ccc(OC)c(OC)c2)C3=O)CC1` [Cpd 56, 1-methyl-1H-imidazole-2-carboxylic acid {(4R)-4-(3,4-dimethoxy-phenyl)-4-[4-(4-ethyl-piperazin-1-yl)-1-oxo-1,3-dihydro-isoindol-2-yl]-butyl}-amide] showed an inhibition constant (Ki) in test [1] of 125 nM. The half-maximal inhibitory concentration (IC50) was determined as 699 nM in test [2] and 79 nM in test [3].
The corresponding values for `CCN1CCN(c2cccc3c2CN(C(c2ccc(OC)c(OC)c2)C2CCN(Cc4ccccc4)CC2)C3=O)CC1` (stereo not drawn) [Cpd 43, 2-[(1-benzyl-piperidin-4-yl)-(3,4-dimethoxy-phenyl)-methyl]-4-(4-ethyl-piperazin-1-yl)-2,3-dihydro-isoindol-1-one] are above 300 nM, 2680 nM and 173 nM.
In test [1], `CCN1CCN(c2cccc3c2CN([C@H](CCCNC(=O)c2ccco2)c2ccc(OC)c(OC)c2)C3=O)CC1` [Cpd 78, furan-2-carboxylic acid {(4R)-4-(3,4-dimethoxy-phenyl)-4-[4-(4-ethyl-piperazin-1-yl)-1-oxo-1,3-dihydro-isoindol-2-yl]-butyl}-amide] registered a Ki of 20 nM. The figures for the IC50 in test [2] and in test [3] were 394 nM and 15 nM, respectively.
The corresponding values for `CCN1CCN(c2cccc3c2CN([C@H](CCCNC(=O)c2cn(C)cn2)c2ccc(OC)c(OC)c2)C3=O)CC1` [Cpd 57, 1-methyl-1H-imidazole-4-carboxylic acid {(4R)-4-(3,4-dimethoxy-phenyl)-4-[4-(4-ethyl-piperazin-1-yl)-1-oxo-1,3-dihydro-isoindol-2-yl]-butyl}-amide] are 49 nM, 913 nM and 245 nM.
Regarding `CCNCCC[C@H](c1ccc(OC)c(OC)c1)N1Cc2c(cccc2N2CCN(CC)CC2)C1=O` [Cpd 69, 2-[(1R)-1-(3,4-dimethoxy-phenyl)-4-ethylamino-butyl]-4-(4-ethyl-piperazin-1-yl)-2,3-dihydro-isoindol-1-one], in test [1], the affinity corresponds to a Ki of 199 nM. The figures for the IC50 in test [2] and in test [3] were above 10000 nM and 820 nM, respectively.
On to `CCN1CCN(c2cccc3c2CN([C@H](CCCNC(=O)C(C)(C)C)c2ccc(OC)c(OC)c2)C3=O)CC1` [Cpd 83, N-{(4R)-4-(3,4-dimethoxy-phenyl)-4-[4-(4-ethyl-piperazin-1-yl)-1-oxo-1,3-dihydro-isoindol-2-yl]-butyl}-2,2-dimethyl-propionamide], for which the Ki in test [1] amounted to 17 nM. For the same molecule, the results for the half-maximal inhibitory concentration (IC50) in test [2] and in test [3] were 200 nM and 45 nM, respectively.
Regarding `COc1ccc([C@@H](CCCN(C)S(=O)(=O)c2cccs2)N2Cc3c(cccc3N3CCNCC3)C2=O)cc1OC` [Cpd 30, thiophene-2-sulfonic acid [(4R)-4-(3,4-dimethoxy-phenyl)-4-(1-oxo-4-piperazin-1-yl-1,3-dihydro-isoindol-2-yl)-butyl]-methyl-amide], the Ki in test [1] (setting [4]) came to 49 nM. For the same molecule, the IC50 in test [2] is 409 nM; in test [3], 39 nM.
